Measurements from patent publication US5747463A, “Malonate derivatives of glycolipids as cell adhesion inhibitors” (Bristol-Myers Squibb Company, priority 1996, dated 1998).

How the values were obtained:
rats = test: Reverse Passive Arthus Reaction in Rats (RPA); format: in vivo, male Sprague Dawley rats; parameters: key to RPA VP % Inhib. (vascular permeability): NS: no significant inhibition at 3 mg; conditions: single dose of 3 mg IV, rat, 4 hours after BSA
Source text: The reverse passive Arthus reaction in rats is a modification of the method by Mulligan et al., as described in J. Clin. Invest, (1991) 88: 1396-1406. This is an experimental model in which the interaction of antigen-antibodycomplexes and complement leads to a severe vasculitis that is associated with edema, induration, erythema and hemorrhage. The interaction between the antigen-antibody complexes and complement leads to a localized influx of neutrophils. These neutrophils release a variety of mediators that are associated with tissue damage and vascular permeability. The localized inflammatory reaction is measured using different techniques i.e., vascular permeability and neutrophil influx which is evaluated both biochemically and microscopically.
Male Sprague Dawley specific pathogen-free rats with jugular vein cannulae (280-320 g, Hill Top Labs, Pennsylvania) are used in these studies. Animals are acclimated for at least 1 day and individually housed in stainless steel cages. The dorsal region of the rats is closely clipped 2 days prior to the experiments and divided into 4 sites on each side of the midline. Prior to all injections the rats are sedated with 0.4 ml per 300 gm rat of ketamine/rompun [1000 mg (10 ml) of ketamine HCl is mixed with 40 mg (2.0 ml) Rompun] administered IP and or inhalation anesthesia with metafane (methoxyflurane).
Bovin Serum Albumin (BSA) and rabbit polyclonal IgG rich in anti-BSA are purchased from Sigma Chemical Co. (St. Louis, Mo.). Radiolabelled ^125 I-BSA (spAct 1-5 μCi/μg) is purchased from Dupont NEN (Boston, Mass.).
Each rat is administered intradermal (ID) injection of (0.4 mg, 0.6 mg and 0.8 mg) anti-BSA in a volume of 100 μl per injection in normal saline. The ID injections are randomized near the mid dorsal region on both sides of the back bone. Immediately after the ID injections of the anti-BSA, the rats are administered intravenous (IV) injections of BSA (10 mg in 1.0 ml) in normal saline containing ^125 I labeled BSA (1 μCi/ml BSA or 5.0 μCi/kg body/wt) for quantification of dermal valscular injury. Anti-inflammatory agents such as inhibitors of adhesion molecules of the present invention are administered IV at a single dose of 3 mg immediately after BSA. Four (4) hours after the IV injection of BSA, the rats are anesthetized with metafane and 2 to 3 ml of blood is withdrawn via the cannula into an anticoagulant containing (EDTA or Heparin) tube and plasma separated and saved for neutrophil and albumin quantitation. The rats are killed and the skin surrounding the injection site (15 mm diameter) is punched out and weighed. The skin sample and a fixed volume of plasma (0.1 to 1.0 ml) is analyzed in a gamma-counter for ^125 I content. Skin samples from the contralateral side are processed and analyzed for myeloperoxidase activity (MPO) as a measure of neutrophil accumulation. As needed, samples are also processed for histological evaluation of the reacted sites.
The calculation of the plasma protein exudation into skin is made by determining the radioactivity in the tissue and relating this to the level of radioactive albumin in the blood at the time of sacrifice. […] [formula]
Percent inhibition of the test compound at 3 mg was determined as follows: [formula] Myeloperoxidase (MPO)
MPO is located in the azurophil granules of polymorphonuclear leukocytes (PMN). Because of its abundance in these cells (5% dry weight), this enzyme is used as a marker for tissue neutrophil content. For tissue MPO content, the method of Bradley, et al., was used as described in J. Invest. Dermatol. (1982) 78: 206-209. Biopsies from each treatment group were placed in plastic tubes (15×100 mm) containing 10 ml of 0.5% hexadecyltrimethylammonium bromide (HTAB) in 0.05M potassium phosphate buffer pH 6.0. The tissue was then homogenized with a Brinkmann Polytron homogenizer (10s). […]

[1] = tested on: platelet: HL-60 cell adhesion; test: HL-60 Platelet Cell Adhesion Assay; format: cell-based; conditions: 0.5 h; thrombin-activated human platelets: HL-60 5:1, 30 minutes at room temperature; read-out: P-selectin HL-60 Platelets IC50
Procedure: HL-60 cells, obtained from American Type Culture Collection, were cultured in RPMI 1640 medium (GIBCO) supplemented with 20% fetal calf serum (Sigma) and 50 μg/ml gentamicin (GIBCO). Cells in log phase growth were harvested, washed and resuspended in Tyrodes buffer containing 5 mM HEPES and 0.2% bovine serum albumin and were fixed with 1% buffered formalin.
Blood from normal human donors was anticoagulated with citrate, layered over 1-Step Platelets (Accurate Chemical Co.) and centrifuged at 350 g for 20 minutes at room temperature. The platelet band was collected, diluted in 2 volumes of Tyrode's Buffer with 5 mM HEPES, 10 mM EDTA, and 0.2% BSA (pH 7.4) (THEB) and centrifuged at 600 g for 10 minutes. The platelet pellet was resuspended in THEB and incubated at room temperature for 1 hour. Calcein-acetoxy methylester (Calcein-Am, Molecular Probes) was added to the platelets at a final concentration of 10 μM and incubated for 10 minutes at 37° C. to label the platelets. Without washing, the platelets were counted on a Coulter counter model ZM, and the concentration was adjusted to 1×10^7 /ml. The platelets were activated with 2 U/ml of human thrombin for 10 minutes in Tyrode's containing 2 mM CaCl2, 5 mM HEPES, and 0.2% BSA (pH 7.4) (THB) at 37° C. and immediately fixed with 1% buffered formalin for 1 to 2 hours at room temperature. A small aliquot of labeled platelets was removed before activation and designated as non-activated.
Both platelets and HL-60 were washed in a ≥25 fold excess volume of Hanks Balanced Salt Solution (HBSS), resuspended in THB and counted. Cell concentrations were adjusted to 2×10^7 /ml for platelets and 4×10^6 /ml for HL-60, this ratio determined to be optimum for platelet: HL-60 cell adhesion. Compounds were incubated with 50 μl of platelets for 30 minutes at room temperature before addition of 50 μl of HL-60. This ratio of 5:1 platelets to HL-60 was incubated for 30 minutes at room temperature before addition of 0.2 ml of THB to increase the volume so the samples could be analyzed on a FACScan cytometer (Becton Dickinson). Non-activated platelets, and activated platelets with 10 mM EDTA were included as controls. Data were collected within a region set for the forward scatter channel corresponding to HL-60 size events.
The percent HL-60 cells which contained bound platelets was determined for each test condition. The inhibition of binding was determined by comparison to standards which were treated with vehicle alone (representing 0% inhibition) and standards whose specific binding had been blocked by the use of EDTA (representing 100% inhibition), by the following formula: [formula] where x=HL-60 cells containing bound platelets in the presence of the compound;
b=HL-60 cells containing bound platelets in the presence of EDTA;
a=HL-60 cells containing bound platelets in the presence of compound vehicle;
z=% inhibition of platelet: HL-60 cell adhesion

P-selectin = biological target: T1, P-selectin (Homo sapiens, UniProt P16109); conditions: literature; cited from earlier work
T1 sequence (P16109 42-830): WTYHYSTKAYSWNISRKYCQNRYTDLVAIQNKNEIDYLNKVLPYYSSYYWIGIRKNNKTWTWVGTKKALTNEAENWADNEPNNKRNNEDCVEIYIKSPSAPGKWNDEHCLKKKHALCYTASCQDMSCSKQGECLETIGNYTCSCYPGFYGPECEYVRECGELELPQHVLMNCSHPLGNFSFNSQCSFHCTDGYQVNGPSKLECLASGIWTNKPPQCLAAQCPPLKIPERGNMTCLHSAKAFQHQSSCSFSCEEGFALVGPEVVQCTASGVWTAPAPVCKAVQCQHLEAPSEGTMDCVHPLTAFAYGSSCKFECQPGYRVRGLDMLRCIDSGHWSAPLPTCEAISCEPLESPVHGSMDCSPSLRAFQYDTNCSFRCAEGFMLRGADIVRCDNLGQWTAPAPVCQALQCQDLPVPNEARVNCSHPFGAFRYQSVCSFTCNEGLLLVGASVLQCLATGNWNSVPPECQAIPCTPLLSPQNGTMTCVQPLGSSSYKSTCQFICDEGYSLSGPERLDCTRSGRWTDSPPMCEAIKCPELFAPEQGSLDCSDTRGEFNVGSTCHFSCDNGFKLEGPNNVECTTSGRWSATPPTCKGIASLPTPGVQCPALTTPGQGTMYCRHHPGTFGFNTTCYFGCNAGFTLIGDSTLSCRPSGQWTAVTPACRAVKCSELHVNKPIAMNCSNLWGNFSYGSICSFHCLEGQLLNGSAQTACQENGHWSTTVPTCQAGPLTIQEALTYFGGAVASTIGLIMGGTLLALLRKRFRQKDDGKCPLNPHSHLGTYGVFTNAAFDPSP

With `CCCCCCCCCCCCC/C=C/[C@@H](OC(=O)c1ccccc1)[C@H](CO[C@@H]1O[C@H](CO)[C@H](O)[C@H](OCCCCC(C(=O)O)C(=O)O)[C@H]1O)NC(=O)CCCCCCCCCCCCCCC` [Example 14, (2S,3R,4E)-3-Benzoyloxy-2-hexadecanoylamino-1-[3-O-(5,5-di-carboxypent-1-yl)-β-D-galactopyranosyloxy]-4-octadecene] the “RPA MPO % Inhib. (myeloperoxidase)” value (rats) was 30.9%, the “RPA VP % Inhib. (vascular permeability)” value (rats) was 15.5% and the IC50 [1] was 45 µM.
In the case of dextran sulfate, the “inhibition of P-selectin mediated adhesion” value (P-selectin) is listed as “inhibit P-selectin mediated adhesion”.
With `CCCCCCCCCCCCC/C=C/[C@@H](OC(=O)c1ccccc1)[C@H](CO[C@H]1O[C@H](CO)[C@H](O)[C@H](OCCCCC(C(=O)O)C(=O)O)[C@H]1O)NC(=O)CCCCCCCCCCCCCCC` [Example 12, (2S,3R,4E)-3-Benzoyloxy-2-hexadecanoylamino-1-[3-O-(5,5-di-carboxypent-1-yl)-α-D-galactopyranosyloxy]-4-octadecene] the “RPA MPO % Inhib. (myeloperoxidase)” value (rats) was 82%, the “RPA VP % Inhib. (vascular permeability)” value (rats) was 33% and the IC50 [1] was 22.9 µM.
For `CCCCCCCCCCCCC/C=C/[C@@H](OC(=O)c1ccccc1)[C@H](CO[C@H]1O[C@H](COCCC(C(=O)O)C(=O)O)[C@H](O)[C@H](O)[C@H]1O)NC(=O)CCCCCCCCCCCCCCC` [Example 6, (2S,3R,4E)-3-Benzoyloxy-2-hexadecanoylamino-1-[6-O-(3,3-di-carboxyprop-1-yl)-α-D-galactopyranosyloxy]-4-octadecene], the “RPA MPO % Inhib. (myeloperoxidase)” value (rats) was 25%, the “RPA VP % Inhib. (vascular permeability)” value (rats; printed as symbol) was “NS” and the IC50 [1] was 13 µM.
For `CCCCCCCCCCCCC/C=C/[C@@H](OC(=O)c1ccccc1)[C@H](CO[C@@H]1O[C@H](CO)[C@H](O)[C@H](OC(=O)c2ccccc2)[C@H]1OCCCCC(C(=O)O)C(=O)O)NC(=O)CCCCCCCCCCCCCCC` [Example 18, (2S,3R,4E)-3-Benzoyloxy-2-hexadecanoylamino-1-[2-O-(5,5-di-carboxypent-1-yl)-3-O-benzoyl-β-D-galactopyranosyloxy]-4-octadecene], the “RPA MPO % Inhib. (myeloperoxidase)” value (rats) was 61.6%, the “RPA VP % Inhib. (vascular permeability)” value (rats) was 4.3% and the IC50 [1] was 8.8 µM.
With `CCCCCCCCCCCCC/C=C/[C@@H](OC(=O)c1ccccc1)[C@H](CO[C@H]1O[C@H](CO)[C@H](OCCC(C(=O)O)C(=O)O)[C@H](O)[C@H]1O)NC(=O)CCCCCCCCCCCCCCC` [Example 24, (2S,3R,4E)-3-Benzoyloxy-2-hexadecanoylamino-1-[4-O-(3,3-di-carboxyprop-1-yl)-α-D-galactopyranosyloxy]-4-octadecene] the “RPA MPO % Inhib. (myeloperoxidase)” value (rats) was 35%, the “RPA VP % Inhib. (vascular permeability)” value (rats) was 33.5% and the IC50 [1] was 51 µM.
In the case of fucoidan, the “inhibition of P-selectin mediated adhesion” value (P-selectin) is given as “inhibit P-selectin mediated adhesion”.
For heparin, the “inhibition of P-selectin mediated adhesion” value (P-selectin) is listed as “inhibit P-selectin mediated adhesion”.
